Measured values from patent US20210393570A1, “THERAPEUTICAL COMPOSITIONS FOR USE IN THE TREATMENT OF NON-MALIGNANT CONDITIONS ASSOCIATED WITH PHOSPHATIDYLINOSITOL-3-KINASE ACTIVATION: OVERGROWTH SPECTRUM, CUTANEOUS CAPILLARY MALFORMATIONS AND SEBORRHEIC KERATOSES” (UNIVERSITÉ DE BOURGOGNE, priority 2017, published 2021).

Key:
[1] = tested on: fibroblasts from patients; assay: Cell viability measured by XTT labeling; format: cell-based, human; conditions: 48 h treatment, increasing doses; compared with PI3K or mTOR inhibitors; FIG. 3A, 3B
Description: (§1) FIG. 3 Cell viability measured by XTT labeling after 48 h of treatment by 10 μM LY294002 or by increasing doses of Triptolide (A), by 4 ng/ml Rapamycin (B) or increasing doses of Kribb11. For each experiment: control 1 (white bar), control 2 (hatched bar), patient B (grey bar), patient A (black bar). n=3. O.D.=optical density. (C) Number of cells after 48 h treatment for patient A. (D) Cell proliferation measured by incorporation of BrdU. O.D.=optical density. (E) Fibroblasts apoptosis of patients and healthy donors measured by a cell death detection ELISA kit, after 24 h treatment with 100 ng/ml rapamycin, 10 μM LY294002, 3 μM Kribb11 or 10 nM Triptolide. 1 μM of staurosporine was used as an inducer of apoptosis and as positive control of the experiment, n=3. O.D.=optical density. *p<0.05, **p<0.01, ***p<0.005.

[2] = tested on: fibroblasts from patients; assay: Cell proliferation measured by incorporation of BrdU; format: cell-based, human; conditions: FIG. 3D
Description: as §1

patient A fibroblasts [3] = assay: Number of cells after 48 h treatment; format: cell-based, human; conditions: compared with PI3K or mTOR inhibitors, FIG. 3C
Description: as §1

patient A fibroblasts [4] = assay: Quantitative PCR of 74 genes known to be regulated by HSF1; format: cell-based, human; conditions: two independent experiments, FIG. 2D
Description: (D) Quantitative PCR analysis of the expression of 74 genes belonging to a cancer-related gene signature in patient A fibroblasts after treatment with LY294002. A code with different patterns is used to illustrate the intensity of the increase (gradient of grey) or decrease (shading pattern) of gene expression compared to untreated cells;
The Inventors have further investigated whether the PI3K/AKT/mTOR pathway is directly responsible for the activation of HSF1 in the fibroblasts of patients. The induction of PI3K/AKT activating pathway by adding insulin to normal fibroblasts is well known. […] To test this hypothesis, the expression of 74 known genes to be regulated by HSF1 have been determined after treatment with the PI3K inhibitor (FIG. 2D). In two independent experiments, the expression of 47 genes is inhibited while the expression of 11 genes is increased. The results are variable for 12 other genes (increase and decrease). […] Thus, a large part of a HSF1-dependent gene signature can be inhibited by the blocking of PI3K and thus confirms the link between these two pathways in the syndrome of segmental hypertrophy PIK3CA dependent.

[5] = tested on: fibroblasts of patients and healthy donors; assay: Fibroblast apoptosis measured by cell death detection ELISA kit; format: cell-based; conditions: 24 h treatment; 3 μM Kribb11 or 10 nM Triptolide; FIG. 3E
Description: as §1

AKT = assay: Immunoblotting of AKT phosphorylation in fibroblasts; format: cell-based, human; conditions: treatment with insulin; FIG. 2A
HSF1 = assay: Immunoblotting of HSF1 phosphorylation in fibroblasts; format: cell-based, human; conditions: insulin added to normal fibroblasts; FIG. 2A

CNc1ccc([N+](=O)[O-])c(Nc2ccc3[nH]ncc3c2)n1 [Kribb11]
cell growth (cell viability, XTT) [1]: reduction in cell growth | increase in the % of cells entering the S phase [2]: completely blocked | number of total cells (patient A fibroblasts [3]): reduction

O=c1cc(N2CCOCC2)oc2c(-c3ccccc3)cccc12 [LY294002]
number of HSF1-regulated genes whose expression is increased (patient A fibroblasts [4]): 11 genes | number of HSF1-regulated genes whose expression is inhibited (patient A fibroblasts [4]): 47 genes | number of HSF1-regulated genes with variable results (increase and decrease) (patient A fibroblasts [4]): 12 genes

CC(C)[C@]12O[C@H]1[C@@H]1O[C@]13[C@]1(O[C@H]1C[C@H]1C4=C(CC[C@@]13C)C(=O)OC4)[C@@H]2O [Triptolide]
cell growth (cell viability, XTT) [1]: reduction in cell growth | cell mortality (apoptosis) [5]: not associated with an increase in cell mortality | number of total cells (patient A fibroblasts [3]): reduction

insulin
phosphorylation of AKT (AKT): induces the phosphorylation of AKT | phosphorylation of HSF1 (HSF1): induction of the phosphorylation of HSF1
